From US9328158B2, “H. pylori lipopolysaccharide outer core epitope” (National Research Council of Canada, priority 2009, dated 2016)
Converted amounts (≈) assume the structure as drawn.

Target: 1C4F9 mAb
Assay: Inhibition ELISA of 1C4F9 mAb binding to adsorbed LPS
Parameters: species or system mouse
Details: Concentration of the oligosaccharide or LPS required for 50% inhibition; purified 1C4F9
Experimental: Studies of the specificity of the glucan-specific antibody were carried out using a series of linear oligosaccharides consisting of consecutive α1,6-linked glucose residues Glc→[α(1→6)Glc]n=1-6 and selective purified H. pylori LPS. For inhibition ELISA, serial dilutions of linear α1,6-linked glucose-containing oligosaccharides from isomalto-series [Glcα1→(6Glcα1→)n=1-6] (USBIOLOGICALS™, Swampscott, […].) or H. pylori 26695, O:3 and PJ2 LPS inhibitors were prepared and mixed with previously prepared dilutions of purified 1 C4F9 that gave an OD450=1. […] After this step, the indirect ELISA procedure was followed as described in Example 6.

Compound `OCC1OC(OCC2OC(OCC3OC(OCC4OC(OCC5OC(OCC6OC(OCC7OC(O)C(O)C(O)C7O)C(O)C(O)C6O)C(O)C(O)C5O)C(O)C(O)C4O)C(O)C(O)C3O)C(O)C(O)C2O)C(O)C(O)C1O` (centres unmarked) [Isomaltoheptaose] has an IC50 of 210 µg/mL (≈ 182 µM).

With `OCC1OC(OCC2OC(OCC3OC(OCC4OC(OCC5OC(OCC6OC(O)C(O)C(O)C6O)C(O)C(O)C5O)C(O)C(O)C4O)C(O)C(O)C3O)C(O)C(O)C2O)C(O)C(O)C1O` (centres unmarked) [Isomaltohexaose] the IC50 was 290 µg/mL (≈ 293 µM).

`OCC1OC(OCC2OC(OCC3OC(OCC4OC(OCC5OC(O)C(O)C(O)C5O)C(O)C(O)C4O)C(O)C(O)C3O)C(O)C(O)C2O)C(O)C(O)C1O` (centres unmarked) [Isomaltopentaose] showed an IC50 of 460 µg/mL (≈ 555 µM).

In the case of `OCC1OC(OCC2OC(OCC3OC(OCC4OC(O)C(O)C(O)C4O)C(O)C(O)C3O)C(O)C(O)C2O)C(O)C(O)C1O` (centres unmarked) [Isomaltotetraose], the IC50 is reported as 1,600 μg/mL.

With `OCC1OC(OCC2OC(OCC3OC(O)C(O)C(O)C3O)C(O)C(O)C2O)C(O)C(O)C1O` (centres unmarked) [Isomaltotriose] the IC50 was 10,000 μg/mL.
